According to PubChem BioAssay AID1918947 (Molecular Pharmacology Branch, DTP, NCI, 2023):
Values joined by “and” are separate entries in the source; they are usually repeats but may differ in a detail not shown here. Equal entries are not always repeated.

System: A498 complex spheroid viability
Experiment: Anticancer human tumor A498 cell line growth inhibition;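 further: spheroids exposed to agents for seven days before readout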;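 on viability, T/C: 100% = DMSO vehicle-treated spheroids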
Settings: for viability, T/C: stronger effect = lower value
Outline: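 Drug combinations with the LSD1 inhibitor iadademstat tested on tumor cells co-cultured as spheroids with endothelial cells and mesenchymal stem cells. Concentrations descended in half-log increments from clinical Cmax or 10 microM.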

[1] = curve of first compound, second compound 0.1 µM
[2] = curve of first compound, second compound 0.316 µM
[3] = curve of first compound, second compound 1 µM
[4] = curve of first compound, second compound 3.16 µM
[5] = curve of first compound, second compound 10 µM
[6] = second compound 0.1 µM, first compound 0.00949 µM
[7] = second compound 0.1 µM, first compound 0.03 µM
[8] = second compound 0.1 µM, first compound 0.0949 µM
[9] = second compound 0.1 µM, first compound 0.3 µM
[10] = second compound 0.316 µM, first compound 0.00949 µM
[11] = second compound 0.316 µM, first compound 0.03 µM
[12] = second compound 0.316 µM, first compound 0.0949 µM
[13] = second compound 0.316 µM, first compound 0.3 µM
[14] = second compound 1 µM, first compound 0.00949 µM
[15] = second compound 1 µM, first compound 0.03 µM
[16] = second compound 1 µM, first compound 0.0949 µM
[17] = second compound 1 µM, first compound 0.3 µM
[18] = second compound 3.16 µM, first compound 0.00949 µM
[19] = second compound 3.16 µM, first compound 0.03 µM
[20] = second compound 3.16 µM, first compound 0.0949 µM
[21] = second compound 3.16 µM, first compound 0.3 µM
[22] = second compound 10 µM, first compound 0.00949 µM
[23] = second compound 10 µM, first compound 0.03 µM
[24] = second compound 10 µM, first compound 0.0949 µM
[25] = second compound 10 µM, first compound 0.3 µM

Q: Which results are given for CC(C)CC(NC(=O)C(Cc1ccccc1)NC(=O)c1cnccn1)B(O)O (configuration not stated) + NC1CCC(NC2CC2c2ccccc2)CC1?
A: IC50 [1]: 0.966 nM; IC50 [2]: 0.876 nM; IC50 [3]: 0.765 nM; IC50 [4]: 0.635 nM; IC50 [5]: 0.527 nM; viability, T/C (second compound 0.1 µM, first compound 0.000316 µM): 82.1%; viability, T/C (second compound 0.1 µM, first compound 0.001 µM): 49%; viability, T/C (second compound 0.1 µM, first compound 0.00316 µM): 3.94%; viability, T/C (second compound 0.1 µM, first compound 0.01 µM): 1.24%; viability, T/C (second compound 0.1 µM, first compound 0.0316 µM): 0.46%; viability, T/C (second compound 0.1 µM, first compound 0.1 µM): 0.48%; viability, T/C (second compound 0.316 µM, first compound 0.000316 µM): 90.5%; viability, T/C (second compound 0.316 µM, first compound 0.001 µM): 44.7%; viability, T/C (second compound 0.316 µM, first compound 0.00316 µM): 3.08%; viability, T/C (second compound 0.316 µM, first compound 0.01 µM): 1.09%; viability, T/C (second compound 0.316 µM, first compound 0.0316 µM): 0.41%; viability, T/C (second compound 0.316 µM, first compound 0.1 µM): 0.97%; viability, T/C (second compound 1 µM, first compound 0.000316 µM): 84.5%; viability, T/C (second compound 1 µM, first compound 0.001 µM): 39.5%; viability, T/C (second compound 1 µM, first compound 0.00316 µM): 2.52%; viability, T/C (second compound 1 µM, first compound 0.01 µM): 0.84%; viability, T/C (second compound 1 µM, first compound 0.0316 µM): 1.13%; viability, T/C (second compound 1 µM, first compound 0.1 µM): 0.61%; viability, T/C (second compound 3.16 µM, first compound 0.000316 µM): 78.5%; viability, T/C (second compound 3.16 µM, first compound 0.001 µM): 31.5%; viability, T/C (second compound 3.16 µM, first compound 0.00316 µM): 1.91%; viability, T/C (second compound 3.16 µM, first compound 0.01 µM): 0.54%; viability, T/C (second compound 3.16 µM, first compound 0.0316 µM): 0.31%; viability, T/C (second compound 3.16 µM, first compound 0.1 µM): 0.35%; viability, T/C (second compound 10 µM, first compound 0.000316 µM): 67.6%; viability, T/C (second compound 10 µM, first compound 0.001 µM): 28%; viability, T/C (second compound 10 µM, first compound 0.00316 µM): 1.67%; viability, T/C (second compound 10 µM, first compound 0.01 µM): 0.4%; viability, T/C (second compound 10 µM, first compound 0.0316 µM): 0.26%; viability, T/C (second compound 10 µM, first compound 0.1 µM): 0.41%

Q: How did the IC50 [1] turn out when CCc1c2c(nc3ccc(O)cc13)-c1cc3c(c(=O)n1C2)COC(=O)[C@]3(O)CC + NC1CCC(NC2CC2c2ccccc2)CC1 was run?
A: < 0.949 nM

Q: What about the IC50 [2] of the same compound?
A: < 0.949 nM

Q: What about the IC50 [3] of the same compound?
A: < 0.949 nM

Q: And the IC50 [4]?
A: < 0.949 nM

Q: What about the IC50 [5] of the same compound?
A: < 0.949 nM

Q: What about the viability, T/C (second compound 0.1 µM, first compound 0.000949 µM) of the same compound?
A: 44.1%

Q: And the viability, T/C (second compound 0.1 µM, first compound 0.003 µM)?
A: 34.7%

Q: What about the viability, T/C [6] of the same compound?
A: 26.7%

Q: And the viability, T/C [7]?
A: 3.44%

Q: And the viability, T/C [8]?
A: 0.09%

Q: And the viability, T/C [9]?
A: 0.11%

Q: And the viability, T/C (second compound 0.316 µM, first compound 0.000949 µM)?
A: 46%

Q: What about the viability, T/C (second compound 0.316 µM, first compound 0.003 µM) of the same compound?
A: 33%

Q: And the viability, T/C [10]?
A: 26.4%

Q: What about the viability, T/C [11] of the same compound?
A: 3.19%

Q: What about the viability, T/C [12] of the same compound?
A: 0.19%

Q: What about the viability, T/C [13] of the same compound?
A: 0.12%

Q: And the viability, T/C (second compound 1 µM, first compound 0.000949 µM)?
A: 47.1%

Q: What about the viability, T/C (second compound 1 µM, first compound 0.003 µM) of the same compound?
A: 37.2%

Q: What about the viability, T/C [14] of the same compound?
A: 25.6%

Q: And the viability, T/C [15]?
A: 3.37%

Q: And the viability, T/C [16]?
A: 0.22%

Q: And the viability, T/C [17]?
A: 0.47%

Q: What about the viability, T/C (second compound 3.16 µM, first compound 0.000949 µM) of the same compound?
A: 44.5%

Q: What about the viability, T/C (second compound 3.16 µM, first compound 0.003 µM) of the same compound?
A: 34.5%

Q: And the viability, T/C [18]?
A: 27.7%

Q: And the viability, T/C [19]?
A: 1.91%

Q: What about the viability, T/C [20] of the same compound?
A: 0.05%

Q: What about the viability, T/C [21] of the same compound?
A: 0.11%

Q: What about the viability, T/C (second compound 10 µM, first compound 0.000949 µM) of the same compound?
A: 42.5%

Q: What about the viability, T/C (second compound 10 µM, first compound 0.003 µM) of the same compound?
A: 31%

Q: What about the viability, T/C [22] of the same compound?
A: 26%

Q: And the viability, T/C [23]?
A: 4.35%

Q: What about the viability, T/C [24] of the same compound?
A: 0.12%

Q: And the viability, T/C [25]?
A: 0.17%

Q: With COc1ccc([C@@H](O)c2cc(-c3ncnc4cc(N5CCOCC5)ccc34)c(F)cc2Cl)nn1 as the compound, how does the viability, T/C (compound 0.0316 µM) read?
A: 84.8% and 74.3%

Q: What about the viability, T/C (compound 0.1 µM) of the same compound?
A: 62.5% and 53.8%

Q: And the viability, T/C (compound 0.316 µM)?
A: 33.1% and 28.8%

Q: And the viability, T/C (compound 1 µM)?
A: 19.1% and 18.4%

Q: What about the viability, T/C (compound 3.16 µM) of the same compound?
A: 10.7% and 9.71%

Q: And the viability, T/C (compound 10 µM)?
A: 6.93% and 6.16%

Q: And the IC50 (curve of compound)?
A: 164 nM and 115 nM

Q: COc1cc(C2c3cc4c(cc3C(OC3OC5COC(C)OC5C(O)C3O)C3COC(=O)C23)OCO4)cc(OC)c1O (configuration not stated) + NC1CCC(NC2CC2c2ccccc2)CC1 was tested. Which IC50 [1] did it give?
A: > 3000 nM

Q: What about the IC50 [2] of the same compound?
A: > 3000 nM

Q: What about the IC50 [3] of the same compound?
A: > 3000 nM

Q: What about the IC50 [4] of the same compound?
A: 2330 nM

Q: And the IC50 [5]?
A: 1420 nM

Q: And the viability, T/C [6]?
A: 81.8%

Q: What about the viability, T/C [7] of the same compound?
A: 67.1%

Q: And the viability, T/C [8]?
A: 59.9%

Q: What about the viability, T/C [9] of the same compound?
A: 58.5%

Q: And the viability, T/C (second compound 0.1 µM, first compound 0.949 µM)?
A: 55.7%

Q: What about the viability, T/C (second compound 0.1 µM, first compound 3 µM) of the same compound?
A: 54.5%

Q: And the viability, T/C [10]?
A: 79.4%

Q: What about the viability, T/C [11] of the same compound?
A: 71.2%

Q: What about the viability, T/C [12] of the same compound?
A: 70.3%

Q: And the viability, T/C [13]?
A: 67.5%

Q: And the viability, T/C (second compound 0.316 µM, first compound 0.949 µM)?
A: 59.6%

Q: What about the viability, T/C (second compound 0.316 µM, first compound 3 µM) of the same compound?
A: 57.5%

Q: What about the viability, T/C [14] of the same compound?
A: 82%

Q: And the viability, T/C [15]?
A: 69.3%

Q: What about the viability, T/C [16] of the same compound?
A: 68.6%

Q: What about the viability, T/C [17] of the same compound?
A: 62.9%

Q: And the viability, T/C (second compound 1 µM, first compound 0.949 µM)?
A: 57.6%

Q: What about the viability, T/C (second compound 1 µM, first compound 3 µM) of the same compound?
A: 57.2%

Q: What about the viability, T/C [18] of the same compound?
A: 72.5%

Q: And the viability, T/C [19]?
A: 69.6%

Q: And the viability, T/C [20]?
A: 63.5%

Q: What about the viability, T/C [21] of the same compound?
A: 60.7%

Q: What about the viability, T/C (second compound 3.16 µM, first compound 0.949 µM) of the same compound?
A: 52.5%

Q: What about the viability, T/C (second compound 3.16 µM, first compound 3 µM) of the same compound?
A: 49.2%

Q: What about the viability, T/C [22] of the same compound?
A: 64.3%

Q: What about the viability, T/C [23] of the same compound?
A: 66.8%

Q: What about the viability, T/C [24] of the same compound?
A: 61.5%

Q: And the viability, T/C [25]?
A: 63.4%

Q: And the viability, T/C (second compound 10 µM, first compound 0.949 µM)?
A: 48.8%

Q: What about the viability, T/C (second compound 10 µM, first compound 3 µM) of the same compound?
A: 45.3%
